Source: patent publication US20240366550A1, “Drug for Treating Prostatitis or Benign Prostatic Hyperplasia (BPH)” (Beijing University of Chemical Technology, priority 2021, published 2024)
Where two headings read alike, the source gives them in different places.

Legend:
[1] = in vivo; settings: po
[2] = test system: chronic bacterial prostatitis (type-II prostatitis patients)
Description: (§1) General information: this group of patients included 117 cases, aged 18 to 52 years old, with an average age of 34.5 years, and their disease duration ranged from 2 months to 5 years.
(§2) Treatment method: 10 mg of SFA per day for 4 to 6 weeks.
Criteria for determining efficacy: the patients were scored according to the Chronic Prostatitis Score (NIH2CPSI) of the National Institutes of Health (NIH); the efficacy was determined based on the patient's symptoms, routine examination results of prostate fluid obtained by massage, and VB3 and EPS bacterial culture results obtained by the Meares-Stamey four-cup test.

[3] = test system: prostatic hyperplasia; settings: of 55 subjects in total
Description: as §1, §2

[4] = clinical; settings: male, human, po, 10 mg
Description: The drug concentration of SFA in vivo was determined in 9 cases of the 115 patients: the patients took 10 mg of SFA orally every day for 3 consecutive days.

[5] = number of patients relieved/total number of patients
[6] = of the remaining 95 cases taking the drug for 6 weeks

bioavailability [1]: 90%
concentration at 6 h ([4]; blood): 50.6 to 182 ng/mL
concentration at 6 h ([4]; prostatic fluid obtained by massage): 13.5 to 22.8 ng/mL
concentration at 6 h ([4]; semen): 2.6 to 5.5 ng/mL
SMILES: C[S+]([O-])CCCCN=C=S (centres unmarked) [SFA, Sulforaphane]
total effective rate ([2]; 12 patients infected with Escherichia coli, 11 with Streptococcus agalactiae, 8 with Streptococcus faecalis): 10000
total effective rate ([2]; 115 patients, 4 to 6 weeks): 88.7%
Urination symptom score ([2]; after treatment, 10 mg SFA per day for 4 to 6 weeks, before treatment 6.8 ± 1.1, P<0.01): 3.2 ± 1.1
Quality of life score ([2]; after treatment, 10 mg SFA per day for 4 to 6 weeks, before treatment 15.2 ± 4.6, P<0.01): 7.5 ± 1.3
Pain and discomfort score ([2]; after treatment, 10 mg SFA per day for 4 to 6 weeks, before treatment 15.3 ± 2.6, P<0.01): 10.3 ± 3.2
NIH-CPSI score ([2]; after treatment, 10 mg SFA per day for 4 to 6 weeks, before treatment 35.2 ± 3.3, P<0.01): 20.1 ± 5.6
White blood cells in prostatic fluid obtained by massage: Negative ([2]; after treatment, before treatment 0): 32 number of people
White blood cells in prostatic fluid obtained by massage: ++++ ([2]; after treatment, before treatment 14): 4 number of people
White blood cells in prostatic fluid obtained by massage: +++ ([2]; after treatment, before treatment 28): 9 number of people
White blood cells in prostatic fluid obtained by massage: + ([2]; after treatment, before treatment 31): 49 number of people
White blood cells in prostatic fluid obtained by massage: ++ ([2]; after treatment, before treatment 44): 21 number of people
Relieving rate, distending pain and discomfort in the suprapubic region [2, 5]: 82.9%
Relieving rate, ejaculation pain [2, 5]: 81.2%
Relieving rate, feeling of incomplete urination [2, 5]: 67.1%
Relieving rate, frequent urination [2, 5]: 80.2%
Relieving rate, labored urination [2, 5]: 72.6%
Relieving rate, penis pain [2, 5]: 77.3%
Relieving rate, perineum pain [2, 5]: 69.5%
Relieving rate, urgent urination [2, 5]: 81.3%
Relieving rate, white urine [2, 5]: 91.2%
cases cured within 4 weeks of taking the drug ([2]; of 115 patients who completed treatment, 10 mg per day): 20 cases
cases cured [2, 6]: 15 cases
cases effective [2, 6]: 23 cases
cases ineffective [2, 6]: 13 cases
cases markedly effective [2, 6]: 44 cases
Number of subjects, prostatic hyperplasia: Cured [3]: 52
Number of subjects, prostatic hyperplasia: Effective [3]: 2
Number of subjects, prostatic hyperplasia: Ineffective [3]: 1
